Experimental data from PubChem BioAssay (NCI).
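Exposure lasted 48 hours, with cells grown in 96-well plates and compounds tested at five concentrations. TGI: total growth inhibition.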

Columns and labels:
Assay in all cases: NCI tumour cell line growth inhibition, 48 h
SK-MEL-28 melanoma = test system: SK-MEL-28 melanoma
SK-MEL-5 melanoma = test system: SK-MEL-5 melanoma
NCI/ADR-RES ovarian = test system: NCI/ADR-RES ovarian
SN12K1 renal = test system: SN12K1 renal
MCF7 breast = test system: MCF7 breast
SF-295 CNS = test system: SF-295 CNS
OVCAR-4 ovarian = test system: OVCAR-4 ovarian
HT29 colon = test system: HT29 colon
EKVX NSCLC = test system: EKVX NSCLC
HCT-15 colon = test system: HCT-15 colon
NCI-H522 lung = test system: NCI-H522 lung
RXF 393 renal = test system: RXF 393 renal
OVCAR-5 ovarian = test system: OVCAR-5 ovarian
SN12C renal = test system: SN12C renal
SF-268 CNS = test system: SF-268 CNS
UACC-62 melanoma = test system: UACC-62 melanoma
P388/ADR leukemia = test system: P388/ADR leukemia
CAKI-1 renal = test system: CAKI-1 renal
CCRF-CEM leukemia = test system: CCRF-CEM leukemia
UACC-257 melanoma = test system: UACC-257 melanoma
P388 leukemia = test system: P388 leukemia
K-562 leukemia = test system: K-562 leukemia
IGROV1 ovarian = test system: IGROV1 ovarian
U251 CNS = test system: U251 CNS
HL-60(TB) leukemia = test system: HL-60(TB) leukemia
SNB-75 CNS = test system: SNB-75 CNS
A549 NSCLC = test system: A549 NSCLC
HCT-116 colon = test system: HCT-116 colon
HOP-18 NSCLC = test system: HOP-18 NSCLC
OVCAR-3 ovarian = test system: OVCAR-3 ovarian
DMS 114 small cell lung = test system: DMS 114 small cell lung
SF-539 CNS = test system: SF-539 CNS
RPMI-8226 leukemia = test system: RPMI-8226 leukemia
HOP-92 NSCLC = test system: HOP-92 NSCLC
HCC-2998 colon = test system: HCC-2998 colon
SK-OV-3 ovarian = test system: SK-OV-3 ovarian
OVCAR-8 ovarian = test system: OVCAR-8 ovarian
DLD-1 colon = test system: DLD-1 colon
SNB-19 CNS = test system: SNB-19 CNS
SK-MEL-2 melanoma = test system: SK-MEL-2 melanoma
LOX IMVI melanoma = test system: LOX IMVI melanoma
DMS 273 small cell lung = test system: DMS 273 small cell lung
NCI-H23 lung = test system: NCI-H23 lung
SW-620 colon = test system: SW-620 colon
M19-MEL melanoma = test system: M19-MEL melanoma
COLO 205 colon = test system: COLO 205 colon
NCI-H460 lung = test system: NCI-H460 lung
MOLT-4 leukemia = test system: MOLT-4 leukemia
KM20L2 colon = test system: KM20L2 colon
UO-31 renal = test system: UO-31 renal
A498 renal = test system: A498 renal
XF 498 CNS = test system: XF 498 CNS
MALME-3M melanoma = test system: MALME-3M melanoma
NCI-H226 lung = test system: NCI-H226 lung
KM12 colon = test system: KM12 colon
HOP-62 NSCLC = test system: HOP-62 NSCLC

Measured: TGI

CN(C)CC(CC1=C(CC(CN(C)C)N(C)C)CCC1)N(C)C (stereo unspecified)
> 100 µM: SK-MEL-28 melanoma | SK-MEL-5 melanoma | NCI/ADR-RES ovarian | SN12K1 renal | MCF7 breast | SF-295 CNS | OVCAR-4 ovarian | HT29 colon | EKVX NSCLC | HCT-15 colon | NCI-H522 lung | RXF 393 renal | OVCAR-5 ovarian | SN12C renal | SF-268 CNS | UACC-62 melanoma | P388/ADR leukemia | CAKI-1 renal | CCRF-CEM leukemia | UACC-257 melanoma | P388 leukemia | K-562 leukemia | IGROV1 ovarian | U251 CNS | HL-60(TB) leukemia | SNB-75 CNS | A549 NSCLC | HCT-116 colon | HOP-18 NSCLC | OVCAR-3 ovarian | DMS 114 small cell lung | SF-539 CNS | RPMI-8226 leukemia | HOP-92 NSCLC | HCC-2998 colon | SK-OV-3 ovarian | OVCAR-8 ovarian | DLD-1 colon | SNB-19 CNS | SK-MEL-2 melanoma | LOX IMVI melanoma | DMS 273 small cell lung | NCI-H23 lung | SW-620 colon | M19-MEL melanoma | COLO 205 colon | NCI-H460 lung | MOLT-4 leukemia | KM20L2 colon | UO-31 renal | A498 renal | XF 498 CNS | MALME-3M melanoma | NCI-H226 lung | KM12 colon | HOP-62 NSCLC
